SMILES | melting point [°C]
CCCCc1ccc(-c2ccc(CCc3ccc(C(F)(F)F)cc3)cc2)cc1 | 85
CCN(Cc1ccc(OC(C)(C)C(=O)O)c(C)c1)c1cc(-c2ccc(Cl)cc2)nn1C | 208
CCOc1ccc(F)cc1C1OC(=O)NC1=O (stereo unspecified) | 188 to 190
Cc1c(N)cccc1C(=O)c1ccc(Cl)cc1 | 65
O=S1(=O)Cc2ccc(F)cc2C(c2ccc(F)cc2)=NN1 | 196 to 200
CC(=O)OC1CSC(Oc2ccc(-c3ccco3)nc2)C(OC(C)=O)C1OC(C)=O (stereo unspecified) | 133
Cc1[nH]cnc1CSCCN=C(N)N | 141 to 142
O=C(O)COc1cccc2c1Cc1sc(SCC=Cc3ccccc3)nc1-2 | 172 to 174
CC1=C(N)C(C)C2CC(C)(CC3CCN(c4ccc(-n5ccnc5)cc4)CC3)OC2=C1C (stereo unspecified) | 170 to 172
CCc1c(-c2ccc(OCc3ccccc3)cc2)c2c(COC)cc3c(OCc4ccccc4)ccc1n32 | 127 to 130
N#Cc1cc(F)c(O)nc1O | 135 to 140
COc1ccccc1-c1nc(-c2ccccc2)c2ncc(Cl)cc2n1 | 116 to 117
CCOc1nc2ccccc2nc1N(CC)C(=O)N1CCN(c2cc(OC)cc(OC)c2)CC1 | 144 to 146
CCOCCCN1C=Cc2cc(S(N)(=O)=O)sc2S1(=O)=O | 131 to 132
Cn1ccc(-c2[nH]nc3c2C(=O)c2c(NC(=O)NN4CCOCC4)cccc2-3)c1 | 301
Cc1nc(N2CCN(CC3CCCCO3)C2=O)sc1C(=O)NCc1cccnc1 (stereo unspecified) | 174 to 175
CCC1(CCCCN2CCN(c3cccc(OC)c3)CC2)C(=O)Nc2ccccc21 (stereo unspecified) | 123 to 125
CCCc1nc2c(N)nc3cc(Br)ccc3c2n1CC1CCN(C(=O)OC(C)(C)C)CC1 | 134 to 137
CN1CC(CCN2CCN(c3ccc(C(F)(F)F)cc3)CC2)OC1=O (stereo unspecified) | 116 to 117
CCCCCCCCCCCCSC1C(=O)N(c2c(Cl)cc(Cl)cc2Cl)N=C1Nc1cc(OC)c(Cl)cc1Cl (stereo unspecified) | 100 to 102
Cn1cc(-c2cccc(C#N)c2)c(=O)c(-c2cccc(C#N)c2)c1 | 322 to 327
OC(c1ccc(Cl)cc1)c1ccc(-n2ccnc2)nc1 (stereo unspecified) | 147 to 149
COCCOc1cc2ncnc(NC3=CC(=O)C(N4CCCCC4)=CC3=O)c2cc1OC | 197 to 200
CCOP(=O)(OCC)c1cnn(-c2ccc(Cl)c(Cl)c2Cl)c1N | 114

SMILES | melting point [°C]
CNC(=O)c1cc2c(Oc3ccc(Br)cc3)cncc2s1 | 78 to 80
CN(c1cccc2cc(C(=O)NCC(C)(CCO)SCc3ccccc3)[nH]c12)S(=O)(=O)c1cccs1 (stereo unspecified) | 132 to 133
COC(=O)[C@H](CCCCNC(=O)c1csc(NC(=O)NCc2ccccc2)n1)NC(=O)OC(C)(C)C | 166
COc1cc(OCc2ccccn2)ccc1/C=C/c1cc(/C=C/c2ccc3ccn(C(C)=O)c3c2)n[nH]1 | 182 to 187
O=C(Nc1ccc(F)cc1)O[C@@H]1CN=C(c2ccccc2)O[C@H]1c1ccccc1 (racemic) | 158
COc1ccc(Cc2cccc(C(O)(C3=NCCCN3)c3ccccc3)c2)cc1 (stereo unspecified) | 92
O=c1[nH]c2ncc(-c3ccc(F)cc3)nc2c(O)c1-c1c(F)cc(F)cc1F | 285 to 288
CC(=O)C(Cc1ccccc1)Nc1nc2ccc(C(C)C)cc2s1 (stereo unspecified) | 107 to 110
O=C1CCC(=O)N1Cc1nc2sc3c(c2c(-c2ccc(O)cc2)c1Cl)CCNC3 | 286 to 287
COc1cc(C(=O)CBr)cc(OC)c1OC | 61 to 62
O=C1Nc2cc(C(F)(F)F)ccc2S(=O)(=O)c2ccccc21 | 253 to 254
COP(=O)(O)Cc1ccc(O)cc1 | 89 to 91
C=CCOc1ncc(F)c(N(N)C(=O)c2cccc(C)c2)n1 | 181 to 185
COC(=O)Cc1c(C)n(-c2ncnc3cc(Cl)ccc23)c2ccc(OC)cc12 | 112 to 114
CC1CC(=O)NN=C1c1ccc(N2CCN(c3ncccn3)CC2)c([N+](=O)[O-])c1 (stereo unspecified) | 232 to 233
Cc1ccc(C(=O)Oc2c(N3CCCC3)c(=O)n(-c3ccccc3)c3ncccc23)cc1 | 216 to 217
Ic1cccc(C=Cc2ccccc2)c1 | 96
CCc1cc2c(s1)S(=O)CCc1cc(=O)n(-c3ccc(Cl)cc3)nc1-2 (stereo unspecified) | 173 to 174
COc1cc(Nc2ncc(C#N)c(-c3ccccc3)n2)cc(OC)c1OC | 98
COC(c1cccs1)C1C(c2ccccc2)CC(=O)N1C (stereo unspecified) | 101 to 102
COCC(c1ccccc1)N(C)Cc1c(-c2ccc(NC(=O)NOC)cc2)sc2c1c(=O)n(-c1ccccc1)c(=O)n2Cc1c(F)cccc1F (stereo unspecified) | 169 to 172
O=C(c1ccccc1)c1ccc(O)c2ncccc12 | 115 to 116
N#Cc1ccc2c(c1)c(CCN1C(=O)c3ccccc3C1=O)cn2Cc1ccccc1 | 182 to 184
CCc1sc(NC(=O)C2=C(O)c3ccc4ccccc4c3S(=O)(=O)N2C)nc1C | 253 to 255

SMILES | melting point [°C]
CCCN1C(=O)N2CC(Cc3ccccc3)N=C2c2[nH]c(C(OC)c3ccccc3)nc21 (stereo unspecified) | 160 to 162
CCCCCCCC(O)CNCCCNCC(O)CCCCCCC (stereo unspecified) | 107 to 109
C=CCOC(=O)C1=C(C)NC(C)=C(C(=O)OCC)C1c1ccc(OC)c(OC)c1OC (stereo unspecified) | 134 to 135
CC1(C)C(=O)NC(c2ccc(NC(=O)CCl)cc2)c2ccccc21 (stereo unspecified) | 218 to 219
O=C(Nc1ccc(C(=O)N2C[C@@H]3CCCN3C(=O)c3ccccc32)cc1)c1ccccc1-c1ccccc1 | 233 to 235
NC(=O)c1cccc(OCc2ccc(F)cc2)c1 | 161 to 162
CC(=O)N1C(=O)N(c2cc(Cl)cc(Cl)c2)C(=O)[C@]12CNC[C@H]2c1ccc(C#N)cc1 (relative stereo) | 125
Cc1noc(-c2ccc(C(=O)N3Cc4cccn4Cc4ccccc43)cc2)n1 | 177 to 179
Nc1nc(C#Cc2ccccc2)cc(-c2ccccc2)n1 | 136 to 138
COc1ccc2c(c1)CC(C(=O)NCCOc1ccc(C(=O)O)cc1)N2S(=O)(=O)c1ccc(-c2ccc(F)cc2F)cc1 (stereo unspecified) | 91
CCOCc1nc2c(N)nc3cc(OCc4ccc(OC)cc4)ccc3c2n1CC(C)C | 181 to 182
COc1ccc2c3c(cn2S(=O)(=O)c2ccc(C)cc2)CC(N=[N+]=[N-])C(=O)c13 (stereo unspecified) | 147 to 148
Cn1ccc2cc(-c3csc4ncnc(NCc5ccccn5)c34)ccc21 | 184 to 185
CC(C)CCN1C(=O)C(NC(=O)Oc2cccc(N(C)C)c2)C(=O)N(c2ccccc2)c2cc(F)ccc21 (stereo unspecified) | 229 to 230
CCCOc1ccc2oc(-c3ccc4c(c3)C=C(C(=O)Nc3ccc(CN(C)C5CCOCC5)cc3)CCS4(=O)=O)cc2c1 | 241 to 242
Cc1[nH]cc2c(=O)n(-c3ccc(Cl)cc3)nc-2c1-c1cccc(I)c1 | 306 to 312
CCOC(=O)C1Cc2cc3c(-c4ccccc4F)noc3c(C)c2O1 (stereo unspecified) | 124 to 125
O=C(O)c1cc(-c2ccc(Cl)cc2)nn1Cc1ccc(Cl)cc1Cl | 218
N#Cc1ccc2c(c1)CC(Br)C2=O (stereo unspecified) | 115 to 118
CC(=O)c1cnc(-c2ccccc2)c(-c2ccc(=O)n(C(C)C)n2)c1 | 207 to 208
N=C(NOC(=O)c1ccccc1)c1ccc(NC(=O)CCCC(=O)Nc2ccc(C(=N)NOC(=O)c3ccccc3)cc2)cc1 | 253 to 255
Brc1ccc2c(c1)C(c1ccccn1)=CCc1nncn1-2 | 219
CCOC(=O)c1cc(O)ccc1OCC | 49 to 53
Cc1ccc(CN2Cc3cncn3CC2=O)cc1 | 105 to 108

SMILES | melting point [°C]
CCc1nc2c(N)nc3cc(CCC(=O)N(C)C)ccc3c2n1CC(C)(C)O | 234 to 237
CCCCNc1c2c(nc3c1cnn3CC)C(=O)c1ccccc1CC2 | 181 to 183
CCCc1ccc(-c2nc(-c3ccccc3Cl)nn2C)c(Cl)c1 | 70 to 72
O=C(O)CCCc1cc2cc(Cl)ccc2n1S(=O)(=O)c1cccc2cccnc12 | 217 to 219
CC(C)[C@]1(CO)CCC(C)(C)C(=O)O1 | 178 to 181
CC(C)n1c2cc(C(F)(F)F)ccc2c2oc(C(=O)Cl)cc21 | 128 to 129
CC(C)=CCN1Cc2c(Br)ccc3[nH]c(=O)n(c23)CC1C (single isomer, unassigned; (+)) | 125
COCCNc1c(N)cc(C(=O)O)cc1S(N)(=O)=O | 209 to 211
Cc1nn(C)cc1C(=O)Nc1cccc2c1CCC2(C)C | 147
CCC(=O)Nc1cccc2c1C(=O)N(C1CCC(=O)NC1=O)C2=O (stereo unspecified) | 221 to 223
CC1CCCN(c2cc(F)cc(C(=O)Nc3ccc(OCCN4CCOCC4)c4ccccc34)c2)C1 (stereo unspecified) | 145 to 148
Oc1ccc2c(c1CNc1ccccc1)CCCO2 | 105 to 107
Cc1ccc2c(Sc3cc(Cl)cc(Cl)c3)c(CC(N)=O)[nH]c2c1 | 197
CC(C)(C)OC(=O)Cn1ccc2cc(NC(=O)CC34CC5CC(CC(C5)C3)C4)ccc21 | 199
C=CCOC(=O)C1=C(C)NC(C)=C(C(=O)OC(C)C)C1c1cccc([N+](=O)[O-])c1 (stereo unspecified) | 96 to 97
O=C(CNC(=O)c1ccc(F)cc1)c1ccsc1 | 140 to 141
N#Cc1cnn2c(C(F)(F)F)cc(-c3ccc(C(F)(F)F)c(F)c3)nc12 | 184
O=C(O)c1ccc(OCCCn2ccnc2)cc1 | 218
Cc1[nH]cc(C#N)c1-c1ccc(Cl)cc1C(=O)c1ccccc1Cl | 206 to 208
O=C(Nc1ccc(-c2ncc(-c3ccc(NC(=O)C4CCCCCC4)cc3)[nH]2)cc1)c1ccc(Cl)c(Cl)c1 | 304 to 306
CC1(c2ccccc2)OC(=S)Nc2ccc(-c3cccc(Cl)c3)cc21 (stereo unspecified) | 202 to 203
O=c1ccc(-c2cccc(-c3ccc(=O)[nH]n3)c2)n[nH]1 | > 250
CC(C)(C#N)c1cc(C#N)cc(Cn2ccnc2)c1 | 89 to 92
COc1cc(OC)c(/C=C2/C(=O)NC(=O)/C2=C/c2ccccc2)c(OC)c1 | 246 to 248

— a melting point compilation (Tetko et al.; mined from patent text by program, amines drawn as free bases though some values may be those of a salt)
